Key:
Type in all cases: cell-based
[1] = biological target: T1, OXE receptor (Homo sapiens, UniProt Q8TDS5); test: 5-oxo-ETE-induced actin polymerization (F-actin levels) in eosinophils; parameters: endogenous in cells; details: 5-oxo-ETE 10 nM, Table 2
Experimental: F-actin levels in eosinophils are measured using unfractionated leukocytes, prepared as described above. Leukocytes (5×10^7 cells/ml) are treated with PC5-labeled mouse anti-human CD16 (10 μl/10^6 cells; Beckman-Coulter) for 30 min on ice. PBS (2 ml/10^6 cells) is then added and the mixture centrifuged at 200×g for 10 min. The pellet is resuspended in ice cold PBS containing Ca^++ (1.8 mM) and Mg^++ (1 mM) to give a concentration of 5×10^6 cells/ml. Aliquots (90 μl) of the leukocyte suspension are first incubated at 37° C. with either vehicle (10 μl PBS containing Ca^++ and Mg^++ and 0.1% BSA) or vehicle containing a 5-oxo-ETE antagonist. After 5 min, either vehicle or vehicle containing 5-oxo-ETE (final concentration, 10 nM) is added and the incubation continued for a further 20 s. The incubations are then terminated by addition of formaldehyde (37%) to give a final concentration of 8.5%. […] F-actin levels are measured by flow cytometry in eosinophils, which are gated based on high side scatter and low staining with anti-CD16. F-actin levels in the eosinophil population are assessed on the basis of fluorescence due to staining with NBD-phallacidin.

[2] = biological target: T1, OXE receptor; test: 5-oxo-ETE-induced calcium mobilization in human granulocytes; parameters: Human granulocytes 95% neutrophils) are prepared from whole blood; endogenous in cells; host or cells: human blood granulocytes (>=95% neutrophils)
Experimental: Primary Screening for Antagonist Activity: Calcium Mobilization in Human Granulocytes
Human granulocytes 95% neutrophils) are prepared from whole blood using Dextran 500 to remove red blood cells, followed by centrifugation over Ficoll-Paque to remove mononuclear cells and hypotonic lysis of any remaining red blood cells. After centrifugation the granulocytes are suspended in Ca^++/Mg^++-free phosphate-buffered saline (PBS). Granulocytes (10^7 cells/nil) are incubated with the acetoxymethyl ester of indo-1 ([…]) for 30 min, followed by washing twice with PBS^− and resuspension in the same medium to obtain a final cell concentration of 3.22×10^6 cells/ml. Five minutes prior to commencing data acquisition, Ca^++ and Mg^++ are added to give final concentrations of 1.8 and 1 mM, respectively. Calcium measurements are performed at 37° C. using a spectrofluorometer equipped with a temperature-controlled cuvette holder and a magnetic stirrer. The excitation and emission wavelengths are 331 nm and 410 nm, respectively. Following stabilization of the baseline, fluorescence is measured for 1 min, prior to the addition of either vehicle or various concentrations of a potential 5-oxo-ETE antagonist. Two min later, 5-oxo-ETE (10 nM) is added, followed 1 min later by digitonin (final concentration 0.1%). Data acquisition is terminated after a further 0.5 min. In some cases LTB4 (10 nM) is added 2 min after 5-oxo-ETE, followed 0.5 min later by addition of digitonin. Fmax is determined from fluorescence measurements after the addition of digitonin, whereas Fmin is determined after determination of autofluorescence as described in the literature (Gelfand et al, J. Biol. Chem. 261:11520 (1986)). A dissociation constant of 250 nM for the indo-1/Ca^++ complex is used to calculate [Ca^++]i. […] Measurement of Actin Polymerization in Eosinophils

[3] = biological target: T1, OXE receptor; test: Neutrophil migration (chemotaxis) induced by 5-oxo-ETE, microchemotaxis chambers; parameters: Human granulocytes 95% neutrophils) are prepared from whole blood; endogenous in cells; host or cells: human blood granulocytes (>=95% neutrophils); details: 5-oxo-ETE 100 nM; human granulocytes; Table 2
Experimental: Cell migration is measured by the modified Boyden technique using 48-well microchemotaxis chambers and Sartorius cellulose nitrate filters (8 μm pore size; 140 μm thickness) as described previously (Powell et al., J Immunol 156: 336 (1996)). Granulocytes (≧95% neutrophils) are prepared as described above. Immediately prior to use the filters are soaked in PBS containing calcium (1 mM), magnesium (1 mM), and 0.3% BSA. Either vehicle (PBS containing Ca^++, Mg^++, and 0.3% BSA) or vehicle containing 5-oxo-ETE (100 nM final concentration) is added to the bottom well in a volume of 30 μl, whereas neutrophils (150,000 cells in 55 μl PBS containing Ca^++, Mg^++ and 0.4% ovalbumin) and either vehicle or various concentrations of a 5-oxo-ETE antagonist are added to each of the top wells. The chambers are incubated for 2 h at 37° C. in 5% CO2 and humidified air. […] The filters are mounted on slides with coverslips using Permount and the numbers of cells on the bottom surfaces of the filters are counted in 5 different fields at a magnification of 400× for each incubation, each of which is performed in triplicate. In cases in which there are large numbers of cells on the bottom surfaces of the filters only quarter or half fields are counted and the results corrected accordingly.

[4] = test system: calcium mobilization in response to LTB4; test: LTB4-induced calcium mobilization in human neutrophils; details: compound 1 μM, LTB4 10 nM, FIG. 2
Experimental: Human granulocytes 95% neutrophils) are prepared from whole blood using Dextran 500 to remove red blood cells, followed by centrifugation over Ficoll-Paque to remove mononuclear cells and hypotonic lysis of any remaining red blood cells. After centrifugation the granulocytes are suspended in Ca^++/Mg^++-free phosphate-buffered saline (PBS). Granulocytes (10^7 cells/nil) are incubated with the acetoxymethyl ester of indo-1 ([…]) for 30 min, followed by washing twice with PBS^− and resuspension in the same medium to obtain a final cell concentration of 3.22×10^6 cells/ml. Five minutes prior to commencing data acquisition, Ca^++ and Mg^++ are added to give final concentrations of 1.8 and 1 mM, respectively. Calcium measurements are performed at 37° C. using a spectrofluorometer equipped with a temperature-controlled cuvette holder and a magnetic stirrer. The excitation and emission wavelengths are 331 nm and 410 nm, respectively. Following stabilization of the baseline, fluorescence is measured for 1 min, prior to the addition of either vehicle or various concentrations of a potential 5-oxo-ETE antagonist. […] Fmax is determined from fluorescence measurements after the addition of digitonin, whereas Fmin is determined after determination of autofluorescence as described in the literature (Gelfand et al, J. Biol. Chem. 261:11520 (1986)). […]

[5] = 5-oxo-ETE 10 nM, human granulocytes, Table 2, read-out: IC50 (μM) Ca^++

T1 sequence (Q8TDS5 whole entry): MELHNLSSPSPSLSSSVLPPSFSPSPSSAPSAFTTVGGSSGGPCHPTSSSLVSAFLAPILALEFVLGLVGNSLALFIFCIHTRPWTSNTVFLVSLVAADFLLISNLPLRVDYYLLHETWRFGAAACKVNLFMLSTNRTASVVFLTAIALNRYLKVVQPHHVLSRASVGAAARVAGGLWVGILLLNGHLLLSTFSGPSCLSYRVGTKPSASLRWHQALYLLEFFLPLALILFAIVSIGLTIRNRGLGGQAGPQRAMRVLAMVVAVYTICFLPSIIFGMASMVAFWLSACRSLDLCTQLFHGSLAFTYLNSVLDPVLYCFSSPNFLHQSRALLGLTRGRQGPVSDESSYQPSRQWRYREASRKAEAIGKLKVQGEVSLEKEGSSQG

SMILES	IC50 [1] [µM]	IC50 [2, 5] [µM]	IC50 ([2]; Table 6, carboxyl side chain variation, readout not given, values match Ca^++, read-out: IC50) [µM]	IC50 ([2]; Table 7, alkyl variation, readout not given, values match Ca^++, read-out: IC50) [µM]	IC50 [3] [µM]	effect on calcium mobilization in response to LTB4 [4]	effect on calcium mobilization in response to 5-oxo-ETE ([2]; compound 1 μM, 5-oxo-ETE 10 nM, human neutrophils, FIG. 2)
CCCCCCc1cc2ccccc2n1C(=O)CC(C)CC(=O)O (stereo not shown) [Compound 2, 5-(2-Hexyl-indol-1-yl)-3-methyl-5-oxo-pentanoic acid]	0.46	0.09	0.09	0.09	0.82	–	–
CCCCCCc1c(C(=O)CC(C)CC(=O)O)c2cc(Cl)ccc2n1C (racemic) [Compound 60, 5-(5-Chloro-2-hexyl-1-methyl-1H-indol-3-yl)-3-methyl-5-oxo-pentanoic acid]	0.072	0.025	–	–	0.11	not to LTB4	completely blocked
